These results are taken from patent US10618914B2 (UNIVERSITY OF PITTSBURGH—OF THE COMMONWEALTH SYSTEM OF …, priority 2015, dated 2020).

Common to all, as to format: cell-based
Experiment [1] concerns HNSCC cell lines 686LN, FADU, CAL33, OSC19. The experiment can be described thus: Growth inhibition on HNSCC cell line panel. Conditions: range over cell lines 686LN.
Another experiment relates to STAT3. The experiment is described as follows: HCS STAT3 assay. To be noted: read-out: STAT3 IC50 (converted).
The subject of the next experiment is STAT1. The experiment can be described thus: STAT1 assay (selectivity counter-screen).
For the next experiment, the system named is Cal33 cells. The experiment can be described thus: Cal33 growth inhibition.
The next experiment concerns FADU. The experiment is described as follows: Growth inhibition on HNSCC cell line FADU. Conditions: average of 2 experiments.
Another experiment relates to OSC19. The experiment can be described thus: Growth inhibition on HNSCC cell line OSC19. To be noted: average of 2 experiments; read-out: 0SC19 GI50.
A further experiment relates to 686LN. The experiment can be described thus: Growth inhibition on HNSCC cell line 686LN. Conditions: average of 2 experiments.
[2] abbreviates: Table 5, * average of 2 experiments.
[3] abbreviates: Table 6, average of 2 experiments.

Like-named read-outs stand apart in the source and are kept apart here.

Turning to `Clc1ccc(C2=Nn3c(nnc3-c3[nH]nc4c3CCC4)SC2)cc1Cl` [1a], the GI50 (in general, the concentration giving 50% growth inhibition) in experiment [1] was 14 to 26 µM. The IC50 – broadly, the point on the concentration scale where inhibition reaches its midpoint – was 6.8 ± 3.7 µM with STAT3 (Table 4) and > 50 µM in the experiment with STAT1 (Table 4).

In experiment [1], `Clc1ccc(C2=Nn3c(nnc3-c3cc(-c4ccccc4)n[nH]3)SC2)cc1` [2b] showed a GI50 of 27 to 44 µM. The 50% inhibitory concentration (IC50) was 9.6 µM with STAT3 (Table 4) and > 50 µM in the experiment with STAT1 (Table 4).

On to `C1=Nn2c(nnc2-c2[nH]nc3c2CCC3)SC1` [11a], for which the IC50 in the experiment on STAT3 (Table 4) and in the experiment on STAT1 (Table 4) was > 50 µM each time.

Consider `C1=Nn2c(nnc2-c2cc(-c3ccccc3)n[nH]2)SC1` [11b], for which the half-inhibitory concentration (IC50) in the experiment on STAT3 (Table 4) and in the experiment with STAT1 (Table 4) was > 50 µM each time.

With `CC1=Nn2c(nnc2-c2[nH]nc3c2CCC3)SC1` [12a], the concentration for half-maximal inhibition (IC50) in the experiment with STAT3 (Table 4) and in the experiment on STAT1 (Table 4) was > 50 µM in each case.

Take `CC1=Nn2c(nnc2-c2cc(-c3ccccc3)n[nH]2)SC1` [12b]: the half-inhibitory concentration (IC50) with STAT3 (Table 4) and in the experiment on STAT1 (Table 4) was > 50 µM in each case.

As to `C1CCC(C2=Nn3c(nnc3-c3[nH]nc4c3CCC4)SC2)CC1` [13a], the IC50 was > 30 µM in the experiment on STAT3 (Table 4) and > 50 µM in the experiment on STAT1 (Table 4).

Consider `c1ccc(-c2cc(-c3nnc4n3N=C(C3CCCCC3)CS4)[nH]n2)cc1` [13b], for which the IC50 with STAT3 (Table 4) and in the experiment on STAT1 (Table 4) was > 50 µM in each case.

With `CC1Sc2nnc(-c3[nH]nc4c3CCC4)n2N=C1c1ccc(Cl)c(Cl)c1` (stereo not drawn) [Cmpd 19], the 50% inhibitory concentration (IC50) in the experiment with STAT3 (setting [2]) was 8.2 ± 2.2 µM; in the experiment on STAT1 (setting [2]) it was > 50 µM. Also, in the experiment with Cal33 cells (setting [2]), the GI50 came out at 1.9 ± 1.2 µM.

For the molecule `COc1ccc(C2=Nn3c(nnc3-c3[nH]nc4c3CCC4)SC2C)cc1` (stereo not drawn) [Cmpd 20], the IC50 with STAT3 (setting [2]) is 9.1 µM; with STAT1 (setting [2]) it was > 50 µM. This molecule gave a concentration for 50% growth inhibition (GI50) with Cal33 cells (setting [2]) of 0.2 µM.

Turning to `CC1Sc2nnc(-c3cc(-c4ccccc4)n[nH]3)n2N=C1c1ccccc1` (stereo not drawn) [Cmpd 21], the values for the half-inhibitory concentration (IC50) in the experiment on STAT3 (setting [2]) and in the experiment on STAT1 (setting [2]) were 3.4 µM and 15 µM, respectively. For the same molecule, the 50% growth inhibitory concentration (GI50) with Cal33 cells (setting [2]) was determined as 34.1 ± 8.7 µM.

`CC1Sc2nnc(-c3cc(-c4ccc(F)cc4)n[nH]3)n2N=C1c1ccccc1` (stereo not drawn) [Cmpd 22]: the values for the IC50 in the experiment with STAT3 (setting [2]) and with STAT1 (setting [2]) were 3.8 ± 0.8 µM and > 30 µM, respectively. Also, halving of growth in the experiment on Cal33 cells (setting [2]) (GI50) required 36.3 ± 9.7 µM.

For the molecule `COc1ccc(C2=Nn3c(nnc3-c3cc(-c4ccc(F)cc4)n[nH]3)SC2C)cc1` (stereo not drawn) [Cmpd 23], the concentration for half-maximal inhibition (IC50) in the experiment with STAT3 (setting [2]) was 4.2 µM; in the experiment on STAT1 (setting [2]) it was > 30 µM. In the experiment with Cal33 cells (setting [2]), this molecule returned a concentration for 50% growth inhibition (GI50) of 29.5 ± 6.5 µM.

`CC(C)C1Sc2nnc(-c3[nH]nc4c3CCC4)n2N=C1c1ccc(Cl)c(Cl)c1` (stereo not drawn) [Cmpd 25]: the 50% inhibitory concentration (IC50) is 4.4 µM with STAT3 (setting [2]) and > 50 µM in the experiment with STAT1 (setting [2]). Also, halving of growth with Cal33 cells (setting [2]) (GI50) required 8.2 µM.

Take `COc1ccc(C2=Nn3c(nnc3-c3[nH]nc4c3CCC4)SC2C(C)C)cc1` (stereo not drawn) [Cmpd 26]: it took 0.4 ± 0.1 µM to inhibit growth in the experiment with Cal33 cells (setting [2]) by half (GI50). In addition, the IC50 in the experiment with STAT1 (setting [2]) was > 50 µM.

Regarding `CCC(C)C1Sc2nnc(-c3[nH]nc4c3CCC4)n2N=C1c1ccc(OC)cc1` (stereo not drawn) [Cmpd 27], the results for the 50% inhibitory concentration (IC50) with STAT3 (setting [2]) and in the experiment with STAT1 (setting [2]) were 4.1 µM and > 50 µM, respectively. Besides, the GI50 in the experiment on Cal33 cells (setting [2]) was found to be 3.5 ± 1.5 µM.

On to `CCC(C)C1Sc2nnc(-c3cc(-c4ccccc4)n[nH]3)n2N=C1c1ccc(OC)cc1` (stereo not drawn) [Cmpd 28], for which, in the experiment with Cal33 cells (setting [2]), the GI50 stood at 0.5 µM. In addition, the IC50 in the experiment on STAT1 (setting [2]) is > 50 µM.

For `CCCCC1Sc2nnc(-c3[nH]nc4c3CCC4)n2N=C1c1ccc(Cl)c(Cl)c1` (stereo not drawn) [Cmpd 29], the 50% inhibitory concentration (IC50) in the experiment with STAT3 (setting [2]) was 7.5 µM; in the experiment on STAT1 (setting [2]) it was > 50 µM. Further, it took 3.3 µM to inhibit growth with Cal33 cells (setting [2]) by half (GI50).

In the case of `CC1(C)Sc2nnc(-c3[nH]nc4c3CCC4)n2N=C1c1ccc(Cl)c(Cl)c1` [Cmpd 32], the IC50 in the experiment on STAT3 (setting [2]) was 18.6 µM; in the experiment on STAT1 (setting [2]), > 50 µM. Besides, the GI50 with Cal33 cells (setting [2]) was > 50 µM.

For the molecule `COc1ccc(C2=Nn3c(nnc3-c3[nH]nc4c3CCC4)SC2C)cc1` (stereo not drawn) [compound 20], the 50% growth inhibitory concentration (GI50) in the experiment with FADU is 1.3 µM; in the experiment on OSC19, 3.1 µM; in the experiment on Cal33 cells (setting [3]), 0.18 µM; in the experiment on 686LN it was 0.88 µM.

As for `COc1ccc(C2=Nn3c(nnc3-c3cc(-c4ccc(Cl)cc4)n[nH]3)SC2C)cc1` (stereo not drawn) [compound 24], the 50% growth inhibitory concentration (GI50) in the experiment on FADU turned out to be 8.4 µM; with OSC19, 14.9 µM; in the experiment on Cal33 cells (setting [3]), 2.2 µM; with 686LN, 17.4 µM.
